Data set [1] has as its system breast cancer and liver cancer. As to conditions: animal studies; cited from earlier work.
Data set [2] relates to hepatocytes. As to conditions: cited from earlier work.
The nature of data set [3]: Solubility in ethanol.

As for `COc1cc(/C=C/C(=O)O)ccc1O` [Ferulic acid, ferulic acid], in data set [1], the Antitumor activity entry is on record as “direct antitumor activity”.
`CCNC(=O)CC[C@H](N)C(=O)O` [L-theanine, gamma-glutamylethylamide]: the “Protection of hepatocytes against ethanol-induced cell cytotoxicity” value in data set [2] is recorded as “significantly protect hepatocytes”. In addition, in data set [3], the Solubility in ethanol result is “ethanol soluble”.
In the case of `Oc1ccc(C=Cc2cc(O)cc(O)c2)cc1` [Resveratrol, resveratrol], the Solubility in ethanol entry in data set [3] is listed as “ethanol soluble”.
